Test results: US20230000808A1, “COMPOSITIONS AND METHODS EXCLUDING OR WITH REDUCED GLUTAMINE FOR THE TREATMENT OF HEMOGLOBINOPATHIES AND THALASSEMIAS” (AXCELLA HEALTH INC., priority 2019, published 2023)

How the values were obtained:
IL-6 [1] = test: Secreted IL-6 in HLMVEC treated with TNF-α (FirePlex); assay type: cell-based, human; conditions: HLMVEC + 0.5 ng/mL TNF-α, 24 h; amino acids 20x HMDB, Nac/Cit/Car 5 mM as bracketed
Description: (§1) Primary Human Lung Microvascular Endothelial Cells (HLMVEC; Lonza) were seeded at 6,000 cells per well in Endothelial Cell Growth Basal Medium-2 (Lonza) supplemented with Fetal Bovine Serum (FBS; Lonza), human EGF (Lonza), human VEGF (Lonza), R3-Insulin-like Growth Factor-1 (Lonza), ascorbic acid (Lonza), hydrocortisone (Lonza), human FGF-beta (Lonza), and gentamicin/amphotericin-b (Lonza) in a 96-well plate (Thermo Fisher). The cells were incubated for 45 minutes at room temperature, then incubated overnight at 37° C./5% CO2.
(§2) Following overnight incubation, cell were washed once with 150 μL of Dulbecco's phosphate buffered saline (DPBS; Gibco), and then treated with Endothelial Basal Medium MCB-131 (amino acid, glucose, sodium pyruvate, and phenol red free; US Biologicals) containing a defined custom amino acid concentration based on physiological concentrations in blood of patients with SCD (thus recapitulating observed metabolic imbalances such as the depletion of certain essential amino acids including arginine and aspartate and enrichment of certain non-essential amino acids including glutamate and asparagine), dialyzed FBS (Hyclone), human EGF (Lonza), human VEGF (Lonza), R3-Insulin-like Growth Factor-1 (Lonza), ascorbic acid (Lonza), hydrocortisone (Lonza), human FGF-beta (Lonza), and gentamicin/amphotericin-b (Lonza), glucose, 10 mM HEPES, sodium pyruvate, and sodium bicarbonate supplemented with one of the following: • a. PBS (vehicle control), • b. 0.5 ng/mL Tumor Necrosis Factor alpha (TNFα) and PBS, or; • c. 0.5 ng/mL TNF-α and amino acid treatments at 20× mean physiological concentrations in plasma based on values published in the Human Metabolome Database (HMDB) in PBS.
Supernatants were analyzed for IL-6 concentrations using a Human Cytokines FirePlex-HT Panel 1 kit (abcam) according to the manufacturer-supplied instructions. Particles were imaged on a high content imager (Molecular Devices), and results were interpolated from a standard curve with FirePlex Analysis Workbench Software (abcam) according manufacturer's recommendations.

HLMVEC = test: META-rank score, composite of VCAM1, ICAM1 and IL6 in the HLMVEC model; assay type: cell-based, human; conditions: HLMVEC + TNF-α; lower score = more optimal; 20x HMDB / 5 mM
Description: The ability of single amino acids and combinations to simultaneously impact these phenotypes was measured by a META-rank score (Tables 17 and 18). META-rank score is a composite measure that considers the optimal impact on all 3 phenotypes (e.g. decrease VCAM1, ICAM1, and IL6) in the HLMVEC model.

VCAM-1 = VCAM-1 cell integrated intensity in HLMVEC treated with TNF-α (immunofluorescence); assay type: cell-based, human; conditions: for VCAM-1 Cell Integrated Intensity Median: HLMVEC + 0.5 ng/mL TNF-α, 24 h, amino acids 20x HMDB, Nac/Cit/Car 5 mM as bracketed
Description: as §1, §2
(§3) After 24 hours of treatment, cells were washed once with 150 μL of DPBS (Gibco), then fixed with 4% paraformaldehyde. Following fixation, cells were stained with anti-ICAM-1 [MEM-111] (mouse IgG2a anti-human; abcam) and anti-VCAM1 [1.4C3] (mouse IgG1, K anti-human; abcam) primary antibodies at 1000×, and 100× dilutions respectively. Cells were then stained with Goat anti-Mouse IgG2a Cross-Adsorbed Secondary Antibody, Alexa Fluor 594 (Invitrogen) and Goat anti-Mouse IgG1 Cross-Adsorbed Secondary Antibody, Alexa Fluor 647 (Invitrogen) secondary antibodies. Nuclei were stained with Hoechst 3342 (Life Technologies).
(§4) Antibody binding was detected by fluorescence microscopy using a high content imager (Molecular Devices). Images were analyzed using MetaXpress 6 software to determine the integrated intensity per cell for each wavelength corresponding to ICAM-1 or VCAM-1.

ICAM-1 = ICAM-1 cell integrated intensity in HLMVEC treated with TNF-α (immunofluorescence); assay type: cell-based, human; conditions: for ICAM-1 Cell Integrated Intensity Median: HLMVEC + 0.5 ng/mL TNF-α, 24 h, amino acids 20x HMDB, Nac/Cit/Car 5 mM as bracketed
Description: as §1, §2, §3, §4

TNFα = test: LPS-induced TNF-α secretion in primary human monocyte-derived macrophages (ELISA); assay type: cell-based; conditions: for TNF-α Measurements Mean: LPS, baseline subtracted
Description: (§5) Primary human PMBC derived macrophages were seeded on day 0 at 3.0×10^4 cells per well in 96-well microplates (ThermoFisher) in Dulbecco's Modified Eagle Medium (DMEM) (Gibco) supplemented with penicillin-streptomycin (Hyclone) and 10% heat inactivated fetal bovine serum (HI-FBS) (Atlanta Bio) and incubated overnight at 37° C., 5% CO2. On day 1, cells were washed once with 150 μl per well DPBS (Gibco) and treated with 75 μl of: • a. […] The same medium described above with one amino acid at various concentrations including complete dropout. […] On day 3, the supernatant was collected and immediately frozen in −80° C. freezer. Cells were washed once with 150 μl DPBS and viability was assessed using the WST-8 Cell Proliferation Cytotoxicity Assay (Dojindo). […] Protein levels in supernatant samples were analyzed by ELISA for IL-6 and TNFα using commercially available kits (R&D Systems) according to manufacturer-supplied protocols.

IL-6 [2] = test: LPS-induced IL-6 secretion in primary human monocyte-derived macrophages (ELISA); assay type: cell-based; design: Donor 1 IL-6 Measurements Mean: unit not given here; conditions: LPS, baseline subtracted
Description: as §5

[3] = 0.5 ng/mL TNF-α, amino acids at 20× HMDB, 24 hours

Which “Secreted IL6 Median” value (IL-6 [1]) does the source give for `N=C(N)NCCC[C@H](N)C(=O)O` [Arg] here?
Its value is −0.224.

What about the “Metarank (Table 17)” value (HLMVEC) of the same molecule?
Its value is 19.

What about the “VCAM-1 Cell Integrated Intensity Median” value (VCAM-1) of the same molecule?
Its value is −0.001.

And the “ICAM-1 Cell Integrated Intensity Median” value (ICAM-1)?
Its value is −0.046.

Which “Secreted IL6 Median” value (IL-6 [1]) does the source give for `NC(=O)CC[C@H](N)C(=O)O` [Gln] here?
The value was 0.043.

What about the “Meta-Rank (Table 18)” value (HLMVEC) of the same molecule?
Its value is 29.

And the “Metarank (Table 17)” value (HLMVEC)?
Its value is 28.

And the “VCAM-1 Cell Integrated Intensity Median” value (VCAM-1)?
The value was 0.372.

And the “ICAM-1 Cell Integrated Intensity Median” value (ICAM-1)?
The value was 0.237.

For `NCC(=O)O` [Gly, glycine], which “Secreted IL6 Median” value (IL-6 [1]) is on record?
Its value is −0.010.

What about the “Meta-Rank (Table 18)” value (HLMVEC) of the same molecule?
Its value is 3.

And the “Metarank (Table 17)” value (HLMVEC)?
The value was 26.

What about the “VCAM-1 expression in HLMVEC” value (VCAM-1; [3]) of the same molecule?
Its value is “greatly reduced”.

And the “VCAM-1 Cell Integrated Intensity Median” value (VCAM-1)?
Its value is −0.298.

And the “TNFα induced ICAM-1 expression levels in HLMVEC” value (ICAM-1; [3])?
The value was “reduced levels of ICAM-1 expression to a lesser extent”.

And the “ICAM-1 Cell Integrated Intensity Median” value (ICAM-1)?
The value was −0.261.

How did the “Secreted IL6 Median” value (IL-6 [1]) turn out when `N[C@@H](Cc1c[nH]cn1)C(=O)O` [His] was run?
The value was −0.198.

What about the “Meta-Rank (Table 18)” value (HLMVEC) of the same molecule?
Its value is 18.5.

And the “Metarank (Table 17)” value (HLMVEC)?
Its value is 22.

What about the “VCAM-1 Cell Integrated Intensity Median” value (VCAM-1) of the same molecule?
Its value is 0.109.

And the “ICAM-1 Cell Integrated Intensity Median” value (ICAM-1)?
The value was 0.084.

How did the “TNF-α Measurements Mean” value (TNFα; Donor 1, Conc. 66 μM (baseline)) turn out when `CC[C@H](C)[C@H](N)C(=O)O` [Isoleucine] was run?
The value was 0.

What about the “TNF-α Measurements Mean” value (TNFα; Donor 1, Conc. 1328 μM) of the same molecule?
The value was −42.68.

What about the “TNF-α Measurements Mean” value (TNFα; Donor 1, Conc. 3320 μM) of the same molecule?
The value was −96.3.

What about the “TNF-α Measurements Mean” value (TNFα; Donor 1, Conc. 6639 μM) of the same molecule?
The value was −40.95.

What about the “TNF-α Measurements Mean” value (TNFα; Donor 2, Conc. 66 μM (baseline)) of the same molecule?
The value was 4.74E−15.

And the “TNF-α Measurements Mean” value (TNFα; Donor 2, Conc. 1328 μM)?
The value was 2.919.

And the “TNF-α Measurements Mean” value (TNFα; Donor 2, Conc. 3320 μM)?
Its value is 10.26.

What about the “TNF-α Measurements Mean” value (TNFα; Donor 2, Conc. 6639 μM) of the same molecule?
Its value is 19.26.

And the “effect on LPS-induced TNF-α secretion” value (TNFα; Donor 2, Two Way ANOVA Dunnett)?
Its value is “increased”.

And the “TNF-α Measurements Mean” value (TNFα; Donor 3, Conc. 66 μM (baseline))?
The value was −2.4E−15.

What about the “TNF-α Measurements Mean” value (TNFα; Donor 3, Conc. 1328 μM) of the same molecule?
Its value is −6.23.

What about the “TNF-α Measurements Mean” value (TNFα; Donor 3, Conc. 3320 μM) of the same molecule?
Its value is 3.309.

What about the “TNF-α Measurements Mean” value (TNFα; Donor 3, Conc. 6639 μM) of the same molecule?
The value was −1.66.

What about the “Donor 1 IL-6 Measurements Mean” value (IL-6 [2]; Conc. 66 μM (baseline)) of the same molecule?
Its value is 0.

And the “Donor 1 IL-6 Measurements Mean” value (IL-6 [2]; Conc. 1328 μM)?
The value was 25.98.

And the “Donor 1 IL-6 Measurements Mean” value (IL-6 [2]; Conc. 3320 μM)?
The value was −15.8843.

And the “Donor 1 IL-6 Measurements Mean” value (IL-6 [2]; Conc. 6639 μM)?
Its value is −218.332.

What about the “Donor 2 IL-6 Measurements Mean” value (IL-6 [2]; Conc. 66 μM (baseline)) of the same molecule?
The value was 0.

What about the “Donor 2 IL-6 Measurements Mean” value (IL-6 [2]; Conc. 1328 μM) of the same molecule?
The value was −2.318.

And the “Donor 2 IL-6 Measurements Mean” value (IL-6 [2]; Conc. 3320 μM)?
The value was 2.305.

What about the “Donor 2 IL-6 Measurements Mean” value (IL-6 [2]; Conc. 6639 μM) of the same molecule?
Its value is −1.774.

What about the “Donor 3 IL-6 Measurements Mean” value (IL-6 [2]; Conc. 66 μM) of the same molecule?
The value was −6.69.

What about the “Donor 3 IL-6 Measurements Mean” value (IL-6 [2]; Conc. 1328 μM) of the same molecule?
Its value is −28.9897.

What about the “Donor 3 IL-6 Measurements Mean” value (IL-6 [2]; Conc. 3320 μM) of the same molecule?
The value was 0.

What about the “Donor 3 IL-6 Measurements Mean” value (IL-6 [2]; Conc. 6639 μM) of the same molecule?
The value was −16.3663.

Which “Secreted IL6 Median” value (IL-6 [1]) does the source give for `CC(C)C[C@H](N)C(=O)O` [Leu] here?
Its value is −0.491.

And the “Meta-Rank (Table 18)” value (HLMVEC)?
Its value is 20.

What about the “Metarank (Table 17)” value (HLMVEC) of the same molecule?
The value was 7.

And the “VCAM-1 Cell Integrated Intensity Median” value (VCAM-1)?
The value was 0.125.

And the “ICAM-1 Cell Integrated Intensity Median” value (ICAM-1)?
The value was 0.086.
